Data taken from PubChem BioAssay (NCI).
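GI50 = concentration required for 50% inhibition of growth. TGI: concentration producing complete growth inhibition.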

Tests used:
Assay in all cases: inhibition of tumour cell growth, NCI panel, 384-well format
[1] = tested on: UO-31 renal
[2] = tested on: U251 glioblastoma
[3] = tested on: SK-OV-3 ovarian
[4] = tested on: MOLT-4 leukemia
[5] = tested on: A498 renal
[6] = tested on: HCT-15 colon
[7] = tested on: BT-549 breast
[8] = tested on: COLO 205 colon
[9] = tested on: A549 NSCLC
[10] = tested on: PC-3 prostate
[11] = tested on: SK-MEL-2 melanoma
[12] = tested on: OVCAR-3 ovarian
[13] = tested on: HOP-62 NSCLC
[14] = tested on: SK-MEL-5 melanoma
[15] = tested on: OVCAR-5 ovarian
[16] = tested on: NCI-H522 lung
[17] = tested on: LOX IMVI melanoma
[18] = tested on: T-47D breast
[19] = tested on: DU-145 prostate
[20] = tested on: OVCAR-4 ovarian
[21] = tested on: MDA-MB-435 melanoma
[22] = tested on: CCRF-CEM leukemia
[23] = tested on: SNB-19 CNS
[24] = tested on: MDA-MB-231 breast
[25] = tested on: SR leukemia
[26] = tested on: TK-10 renal
[27] = tested on: HCC-2998 colon
[28] = tested on: OVCAR-8 ovarian
[29] = tested on: M14 melanoma
[30] = tested on: NCI-H226 lung
[31] = tested on: CAKI-1 renal
[32] = tested on: RPMI-8226 leukemia
[33] = tested on: SF-295 CNS
[34] = tested on: SW-620 colon
[35] = tested on: NCI-H322M lung
[36] = tested on: HT29 colon
[37] = tested on: NCI-H23 lung
[38] = tested on: KM12 colon
[39] = tested on: UACC-257 melanoma
[40] = tested on: IGROV1 ovarian
[41] = tested on: HCT-116 colon
[42] = tested on: 786-0 renal
[43] = tested on: MALME-3M melanoma
[44] = tested on: ACHN renal
[45] = tested on: SF-268 CNS
[46] = tested on: SK-MEL-28 melanoma
[47] = tested on: NCI-H460 NSCLC
[48] = tested on: UACC-62 melanoma
[49] = tested on: HOP-92 NSCLC
[50] = tested on: HL-60(TB) leukemia
[51] = tested on: SF-539 CNS
[52] = tested on: MCF7 breast
[53] = tested on: SN12C renal
[54] = tested on: K-562 leukemia
[55] = tested on: NCI/ADR-RES ovarian
[56] = tested on: MDA-MB-468 breast
[57] = tested on: RXF 393 renal

For `CCOc1cc(C(C)(C)C)ccc1C1=N[C@@](C)(c2ccc(Cl)cc2)[C@@](C)(c2ccc(Cl)cc2)N1C(=O)N1CCN(CCCS(C)(=O)=O)CC1`, the GI50 [1] was 53.4 nM, the TGI [1] was 205 nM and the GI50 [2] was 3710 nM. It also gave a TGI [2] of 11900 nM, a GI50 [3] of 2600 nM and a TGI [3] of 7360 nM. It also gave a GI50 [4] of 29.6 nM, a TGI [4] of 97.5 nM and a GI50 [5] of 185 nM. It also gave a TGI [5] of 1370 nM, a GI50 [6] of 1900 nM and a TGI [6] of 3490 nM. The GI50 [7] was 2350 nM, the TGI [7] was 5590 nM and the GI50 [8] was 3540 nM. It also gave a TGI [8] of 9600 nM, a GI50 [9] of 405 nM and a TGI [9] of 1630 nM. The GI50 [10] was 2150 nM, the TGI [10] was 4430 nM and the GI50 [11] was 2260 nM. It also gave a TGI [11] of 4190 nM, a GI50 [12] of 2110 nM and a TGI [12] of 3760 nM. The GI50 [13] was 2480 nM, the TGI [13] was 6590 nM and the GI50 [14] was 1390 nM. The TGI [14] was 2690 nM, the GI50 [15] was 3520 nM and the TGI [15] was 10800 nM. The GI50 [16] was 3250 nM, the TGI [16] was 8970 nM and the GI50 [17] was 892 nM. The TGI [17] was 2120 nM, the GI50 [18] was 2440 nM and the TGI [18] was 8590 nM. It also gave a GI50 [19] of 3160 nM, a TGI [19] of 10100 nM and a GI50 [20] of 2530 nM. The TGI [20] was 5890 nM, the GI50 [21] was 3940 nM and the TGI [21] was 11700 nM. For the same compound, the GI50 [22] was 2120 nM, the TGI [22] was 3700 nM and the GI50 [23] was 3180 nM. It also gave a TGI [23] of 11300 nM, a GI50 [24] of 2660 nM and a TGI [24] of 6530 nM. It also gave a GI50 [25] of 20 nM, a TGI [25] of 56.9 nM and a GI50 [26] of 2830 nM. It also gave a TGI [26] of 8930 nM, a GI50 [27] of 1470 nM and a TGI [27] of 2960 nM. The GI50 [28] was 3560 nM, the TGI [28] was 12600 nM and the GI50 [29] was 1070 nM. The TGI [29] was 3240 nM, the GI50 [30] was 108 nM and the TGI [30] was 359 nM. For the same compound, the GI50 [31] was 122 nM, the TGI [31] was 1470 nM and the GI50 [32] was 1820 nM. The TGI [32] was 3220 nM, the GI50 [33] was 1930 nM and the TGI [33] was 3850 nM. For the same compound, the GI50 [34] was 4240 nM, the TGI [34] was 13200 nM and the GI50 [35] was 2280 nM. For the same compound, the TGI [35] was 3960 nM, the GI50 [36] was 1870 nM and the TGI [36] was 3290 nM. It also gave a GI50 [37] of 5590 nM, a TGI [37] of 16400 nM and a GI50 [38] of 2230 nM. It also gave a TGI [38] of 4770 nM, a GI50 [39] of 1440 nM and a TGI [39] of 3140 nM. It also gave a GI50 [40] of 1410 nM, a TGI [40] of 3320 nM and a GI50 [41] of 327 nM. For the same compound, the TGI [41] was 1610 nM, the GI50 [42] was 2510 nM and the TGI [42] was 7150 nM. For the same compound, the GI50 [43] was 753 nM, the TGI [43] was 2620 nM and the GI50 [44] was 205 nM. It also gave a TGI [44] of 1210 nM, a GI50 [45] of 2650 nM and a TGI [45] of 7380 nM. For the same compound, the GI50 [46] was 3860 nM, the TGI [46] was 10900 nM and the GI50 [47] was 224 nM. The TGI [47] was 1300 nM, the GI50 [48] was 67.8 nM and the TGI [48] was 1590 nM. It also gave a GI50 [49] of 2240 nM, a TGI [49] of 4680 nM and a GI50 [50] of 2560 nM. For the same compound, the TGI [50] was 4040 nM, the GI50 [51] was 2030 nM and the TGI [51] was 4250 nM. It also gave a GI50 [52] of 411 nM, a TGI [52] of 1940 nM and a GI50 [53] of 2400 nM. The TGI [53] was 5210 nM, the GI50 [54] was 2940 nM and the TGI [54] was 8630 nM. For the same compound, the GI50 [55] was 2370 nM, the TGI [55] was 6070 nM and the GI50 [56] was 2040 nM. The TGI [56] was 5160 nM, the GI50 [57] was 2230 nM and the TGI [57] was 4550 nM.
